The source of these data is PMC2954222, “The structure of Haemophilus influenzae prephenate dehydrogenase suggests unique features of bifunctional TyrA enzymes” (Acta Crystallographica Section F: Structural Biology and …, 2010).

Structures are written as SMILES.

The target of the assay is T1, HinfPDH (prephenate dehydrogenase component of chorismate mutase/prephenate dehydrogenase TyrA) (Haemophilus influenzae, UniProt P43902).
T1 construct: prephenate dehydrogenase domain, residues 81-377 (Met1-Phe80 excluded); N-terminal His tag removed by TEV, leaving Gly; selenomethionine-labelled; expressed in E. coli; dimer
The assay is described as follows: X-ray crystal structure, […] A. In kind it is binding. To be noted: ligand acquired during expression in E. coli, not added.

T1 sequence (P43902 81-377): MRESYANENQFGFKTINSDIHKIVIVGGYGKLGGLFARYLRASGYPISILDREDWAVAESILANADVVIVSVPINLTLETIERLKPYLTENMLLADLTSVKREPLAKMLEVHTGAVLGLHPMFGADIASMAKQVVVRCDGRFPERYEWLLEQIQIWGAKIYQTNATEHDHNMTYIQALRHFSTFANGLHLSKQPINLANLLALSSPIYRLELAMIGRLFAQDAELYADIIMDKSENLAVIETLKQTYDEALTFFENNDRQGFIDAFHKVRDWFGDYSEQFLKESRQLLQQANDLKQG

As to `NC(=O)c1ccc[n+]([C@@H]2O[C@H](COP(=O)(O)OP(=O)(O)OC[C@H]3O[C@@H](n4cnc5c(N)ncnc54)[C@H](O)[C@@H]3O)[C@@H](O)[C@H]2O)c1` [NAD^+], the “X-ray crystal structure, 2.0 A” value (ternary complex with tyrosine, cofactor site) is “One tyrosine and one NAD^+ are bound in each monomer”.

Regarding `N[C@@H](Cc1ccc(O)cc1)C(=O)O` [tyrosine], the “X-ray crystal structure, 2.0 A” value (ternary complex with NAD+, active site, competitive mode only inferred) is “could be unambiguously assigned to a tyrosine molecule and an NAD^+ cofactor”.
